In patent US12005034B2 (ALGOTHERAPEUTIX, priority 2017, dated 2024):

Key:
TRPV1 = biological target: T1, TRPV1 (Mus musculus, UniProt Q704Y3); experiment: Calcium mobilization in DRG neurons with TRPV1 antagonist or agonist; type: cell-based
T1 construct: calcium ion mobilization was investigated in primary cultures of mouse DRG neurons; endogenous in cells; host or cells: primary mouse DRG neurons
Experimental: (§1) For calcium mobilization measurements, 10 DRG cultures (two mice per culture) were washed with Hanks Balanced Salt Solution (HBSS, Thermo Fisher Scientific, Massachusetts, USA), and incubated in HBSS containing 1 μg/ml papain (Sigma Aldrich, Missouri, USA) and L-cysteine (pH 7.4, Sigma Aldrich) for 10 minutes at 37° C. […] Neurons were then mechanically dissociated. […] DRG neurons were incubated with HBSS containing 20 mM Hepes, […] fluo-4 acetoxymethyl (AM) ester (Thermo Fisher Scientific, Waltham, MA USA) and 0.02% pluronic acid for 30 min at 37° C. followed by an additional incubation for 30 min at room temperature. The medium was then discarded and replaced by HBSS. […] The effects of TRP channel agonists and antagonists on amitriptyline-induced calcium ion mobilization were then assessed as follows: neurons were incubated with either an antagonist for TRPV1 (10 μM AMG 9810, Sigma Aldrich) or an antagonist for TRPA1 (HCO30031; […] Sigma Aldrich). Neurons were imaged using an inverted microscope (Zeiss) and a 10×0.5 NA objective. […] Baseline fluorescence was determined for 0 to 10 seconds, and then fluorescence was measured from the 10th to the 65th second after the neurons were incubated with the drugs or controls. […] Variations in fluorescence intensity measured in each neuron were identified using Image J2 software.

TRPA1 = biological target: T2, TRPA1 (Mus musculus, UniProt Q8BLA8); experiment: Calcium mobilization in DRG neurons with TRPA1 antagonist or agonist; type: cell-based
T2 construct: calcium ion mobilization was investigated in primary cultures of mouse DRG neurons; endogenous in cells; host or cells: primary mouse DRG neurons
Experimental: as §1

[1] = Ex vivo study of percutaneous amitriptyline absorption, Frantz cell; type: in vitro ADME, human
Aβ fibers = experiment: Ex vivo single unit recordings, skin-saphenous nerve preparation; type: cell-based, mouse
Experimental: (§2) Adult male mice were anesthetized with isoflurane (4%) and sacrificed by severing of the carotid arteries. Skin-saphenous nerve preparations and single-fiber recordings were carried out. The saphenous nerve and the skin of the hind limb were carefully dissected and placed in a custom-designed organ chamber containing warm oxygenated synthetic interstitial fluid (SIF). […] The saphenous nerve was placed in an adjacent recording chamber filled with mineral oil, gently teased, and groups of nerve fibers were placed on a gold recording electrode in order to isolate single-unit activity. […] Cambridge Electronic Design Limited, UK). Spikes were discriminated off-line using the Spike2 software (Cambridge Electronic Design Limited, UK) and analyzed individually to avoid false positives. The mechanically evoked activity of single saphenous nerve fibers was first obtained in response to von Frey hair stimulations (Friedrich-Alexander University, Erlangen, Germany). Once a receptive field had been characterized, a patch of skin was isolated from the surrounding bath using a plastic minichamber (inner diameter: 0.8 cm) continuously superfused with buffer at 31° C. The receptive field was then stimulated using von Frey mechanical probes mounted on the arm of a computer-controlled piezoelectric […]® controller; PI, Germany). Conduction velocity was determined by electrically stimulating (Tungsten microelectrode: 10 mm ext/60 mm PI; FHC, USA) identified receptive fields with square wave pulses (0.1-0.5 ms, 7-15 V). Axons were considered to be A-type when the conduction velocity was over 4 m/s. Fibers with a conduction velocity below 1 m/s were classified as C fibers.

C fibers = experiment: as above; type: cell-based, mouse
Experimental: as §2

Aδ fibers = experiment: as above; type: cell-based; details: Mus musculus, 10 min
Experimental: (§3) Adult male mice were anesthetized with isoflurane (4%) and sacrificed by severing of the carotid arteries. Skin-saphenous nerve preparations and single-fiber recordings were carried out. The saphenous nerve and the skin of the hind limb were carefully dissected and placed in a custom-designed organ chamber containing warm oxygenated synthetic interstitial fluid (SIF). […] The saphenous nerve was placed in an adjacent recording chamber filled with mineral oil, gently teased, and groups of nerve fibers were placed on a gold recording electrode in order to isolate single-unit activity. […] Cambridge Electronic Design Limited, UK). Spikes were discriminated off-line using the Spike2 software (Cambridge Electronic Design Limited, UK) and analyzed individually to avoid false positives. The mechanically evoked activity of single saphenous nerve fibers was first obtained in response to von Frey hair stimulations (Friedrich-Alexander University, Erlangen, Germany). Once a receptive field had been characterized, a patch of skin was isolated from the surrounding bath using a plastic minichamber (inner diameter: 0.8 cm) continuously superfused with buffer at 31° C. […] Conduction velocity was determined by electrically stimulating (Tungsten microelectrode: 10 mm ext/60 mm PI; FHC, USA) identified receptive fields with square wave pulses (0.1-0.5 ms, 7-15 V). […]

C, Aδ and Aβ fibers = experiment: Ex vivo single unit recordings, skin-saphenous nerve preparation, all fiber types; type: cell-based, mouse
Experimental: as §3

Nav1.8 = biological target: T3, Nav1.8 (Mus musculus, UniProt Q6QIY3); experiment: Whole-cell patch-clamp of sodium currents in Nav1.9-/- DRG neurons; type: cell-based; details: holding potential −100 mV, cumulative 1 μM-1 mM; read-out: IC50, block of Nav1.8 current
T3 construct: The Nav1.8 current was recorded in Nav1.9−/− DRG neurons; endogenous in cells; host or cells: primary DRG neurons from Nav1.9-/- mice (C57Bl/6J background)

hNav1.7 = biological target: T4, hNav1.7 (Homo sapiens, UniProt Q15858); experiment: Whole-cell patch-clamp of sodium currents in hNav1.7-transfected HEK293T cells; type: cell-based; details: holding potential −80 mV, cumulative 1 μM-1 mM; read-out: IC50, block of Nav1.7 current
T4 construct: expressed in transfected cells; host or cells: HEK293T
Experimental: Human embryonic kidney 293T (HEK293T) cells were grown in DMEM containing 4.5 mg/ml glucose, 10% FBS, 50 units/ml penicillin and 50 μg/ml streptomycin. Cells were plated onto 12-mm round glass poly-D-lysine-coated coverslips placed in 24-well plates and transfected using lipofectamine 2000 (Invitrogen) according to the manufacturer's instructions. hNav1.7 and GFP plasmids were co-transfected at a concentration of 600 and 100 ng/ml, respectively. Experiments were conducted on cells 24-48 hours post-transfection.
(§4) Patch clamp recordings were made using borosilicate electrodes (Harvard Apparatus, Holliston, Massachusetts, USA) with a resistance of 2-3 MΩ when filled with an intracellular solution consisting of (in mM): 130 CsCl, 10 Hepes, 8 NaCl, 0.4 NaGTP, 4 MgATP, 1 MgCl2, 1 CaCl2 and 10 EGTA (adjusted to pH 7.3 with CsOH, ˜300 mOsm/L). […] Sodium currents were recorded individually. […] The Nav1.8 current was recorded in Nav1.9−/− DRG neurons, whereas the Nav1.9 current was recorded in Nav1.8−/− DRG neurons. […] Fast activating/inactivating TTX-sensitive Na+ currents (Nav1.1 and Nav1.6) in putative non-nociceptors were recorded in wild-type DRG neurons that had large cell membrane capacitance (Cm>60 pF) and lacked any TTX-resistant Na+ current components. […]

Nav1.9 = biological target: T5, Nav1.9 (Mus musculus, UniProt Q9R053); experiment: Whole-cell patch-clamp of sodium currents in Nav1.8-/- DRG neurons; type: cell-based; details: holding potential −100 mV, cumulative 1 μM-1 mM; read-out: IC50, block of Nav1.9 current
T5 construct: the Nav1.9 current was recorded in Nav1.8−/− DRG neurons; endogenous in cells; host or cells: primary DRG neurons from Nav1.8-/- mice (C57Bl/6J background)
Experimental: (§5) Cultures of DRG were prepared from male mice anesthetized with isoflurane (4%, Piramal Critical Care) and sacrificed by severing of the carotid arteries. Cultures of dissociated DRG neurons were established from thoracolumbar DRG.
(§6) DRG for whole-cell patch-clamp recordings were incubated in Hanks balance salt solution (Invitrogen, France) containing 2 mg/ml of collagenase IA (Sigma, France) for approximately 45 minutes at 37° C. DRG were washed at least 10 times and then triturated with a fired polished glass Pasteur pipette. […]
as §4

[2] = tested on: TTX-S Nav channels (Nav1.1 and Nav1.6); experiment: Whole-cell patch-clamp of TTX-sensitive sodium currents in wild-type DRG neurons; type: cell-based, mouse; details: read-out: IC50, block of TTX-S Nav currents; holding potential −80 mV, touch mechanoreceptors
Experimental: as §5, §6, §4

[3] = tested on: Nav channels in sensory neurons; experiment: Whole-cell patch-clamp of sodium currents, all Nav channels tested; type: cell-based, mouse; details: 100 μM
Excerpt: Patch clamp recordings were made using borosilicate electrodes (Harvard Apparatus, Holliston, Massachusetts, USA) with a resistance of 2-3 MΩ when filled with an intracellular solution consisting of (in mM): 130 CsCl, 10 Hepes, 8 NaCl, 0.4 NaGTP, 4 MgATP, 1 MgCl2, 1 CaCl2 and 10 EGTA (adjusted to pH 7.3 with CsOH, ˜300 mOsm/L). […] Voltage-gated sodium ion currents were leak-subtracted using a P/6 protocol and voltage errors were minimized using 75-80% series resistance compensation. Cultured cells were perfused with the bath solution at flow rate of 5 mL/min. Recordings were made at room temperature (20-24° C.) using an Axopatch 200B amplifier (Axon Instruments, Boston, Massachusetts, USA), filtered at 1-2 kHz, and digitally sampled at 5-20 kHz. Sodium currents were recorded individually. […]. The Nav1.8 current was recorded in Nav1.9−/− DRG neurons, whereas the Nav1.9 current was recorded in Nav1.8−/− DRG neurons. Nav1.8−/− and Nav1.9−/− mice were generated from a C57B1/6J background. Fast activating/inactivating TTX-sensitive Na+ currents (Nav1.1 and Nav1.6) in putative non-nociceptors were recorded in wild-type DRG neurons that had large cell membrane capacitance (Cm>60 pF) and lacked any TTX-resistant Na+ current components. Nav1.7 recordings were made using the transfected HEK cells.

mouse DRG neurons = experiment: Calcium mobilization in DRG neurons, fluo-4 calcium imaging; type: cell-based
Experimental: For calcium mobilization measurements, 10 DRG cultures (two mice per culture) were washed with Hanks Balanced Salt Solution (HBSS, Thermo Fisher Scientific, Massachusetts, USA), and incubated in HBSS containing 1 μg/ml papain (Sigma Aldrich, Missouri, USA) and L-cysteine (pH 7.4, Sigma Aldrich) for 10 minutes at 37° C. […] Neurons were then mechanically dissociated. […] DRG neurons were incubated with HBSS containing 20 mM Hepes, […] fluo-4 acetoxymethyl (AM) ester (Thermo Fisher Scientific, Waltham, MA USA) and 0.02% pluronic acid for 30 min at 37° C. followed by an additional incubation for 30 min at room temperature. The medium was then discarded and replaced by HBSS. […] The effects of TRP channel agonists and antagonists on amitriptyline-induced calcium ion mobilization were then assessed as follows: neurons were incubated with either an antagonist for TRPV1 (10 μM AMG 9810, Sigma Aldrich) or an antagonist for TRPA1 (HCO30031; […] Sigma Aldrich). Neurons were imaged using an inverted microscope (Zeiss) and a 10×0.5 NA objective. Images were acquired using a CCD camera (Zeiss) and Zen software (Zeiss). Acquisition parameters were kept constant during each experiment. Kinetic analysis was performed using 85 recordings (one per second). Baseline fluorescence was determined for 0 to 10 seconds, and then fluorescence was measured from the 10th to the 65th second after the neurons were incubated with the drugs or controls. At 65 seconds, 50 mM KCl was added to the cells in order to allow discrimination between neurons and glial cells. Variations in fluorescence intensity measured in each neuron were identified using Image J2 software.

[4] = in vivo; cited from earlier work
neuropathic pain = details: topical, maximum dose used 5%; cited from earlier work
[5] = Mus musculus, 10 min, skin superfusion 10 min, 10-100 μM, read-out: IC50, inhibition of mechanically induced firing
[6] = Mus musculus, 10 min, 100 μM, 10 min application to the skin preparation, read-out: Mean inhibition of evoked firing

T2 sequence (Q8BLA8 whole entry): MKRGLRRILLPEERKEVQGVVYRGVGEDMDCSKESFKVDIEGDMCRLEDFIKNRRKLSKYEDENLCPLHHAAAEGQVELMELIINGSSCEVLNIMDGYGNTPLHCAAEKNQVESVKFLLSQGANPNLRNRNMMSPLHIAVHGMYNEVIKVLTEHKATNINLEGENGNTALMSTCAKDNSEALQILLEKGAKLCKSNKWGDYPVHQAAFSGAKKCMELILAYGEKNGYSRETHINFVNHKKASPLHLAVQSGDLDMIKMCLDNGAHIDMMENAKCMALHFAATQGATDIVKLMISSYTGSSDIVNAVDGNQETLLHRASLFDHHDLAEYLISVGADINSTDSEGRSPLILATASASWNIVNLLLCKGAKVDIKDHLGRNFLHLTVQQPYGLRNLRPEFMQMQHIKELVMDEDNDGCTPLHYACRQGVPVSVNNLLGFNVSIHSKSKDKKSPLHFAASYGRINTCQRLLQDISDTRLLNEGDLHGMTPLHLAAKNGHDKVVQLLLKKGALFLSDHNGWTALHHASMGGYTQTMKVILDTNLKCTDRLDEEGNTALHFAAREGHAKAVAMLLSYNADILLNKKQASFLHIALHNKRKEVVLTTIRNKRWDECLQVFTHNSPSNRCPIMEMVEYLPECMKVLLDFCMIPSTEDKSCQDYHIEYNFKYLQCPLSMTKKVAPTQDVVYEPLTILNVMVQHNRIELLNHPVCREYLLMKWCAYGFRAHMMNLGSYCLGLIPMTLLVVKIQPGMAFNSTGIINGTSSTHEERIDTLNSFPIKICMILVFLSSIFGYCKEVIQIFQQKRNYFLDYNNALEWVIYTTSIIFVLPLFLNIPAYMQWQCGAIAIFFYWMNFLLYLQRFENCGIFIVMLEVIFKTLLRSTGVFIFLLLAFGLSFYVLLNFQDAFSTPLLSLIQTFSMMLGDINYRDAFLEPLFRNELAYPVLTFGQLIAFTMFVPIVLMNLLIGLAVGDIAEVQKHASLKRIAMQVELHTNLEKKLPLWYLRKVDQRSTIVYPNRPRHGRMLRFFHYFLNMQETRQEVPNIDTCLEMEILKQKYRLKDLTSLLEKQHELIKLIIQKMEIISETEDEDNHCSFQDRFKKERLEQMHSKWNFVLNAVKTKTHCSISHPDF
T1 sequence (Q704Y3 whole entry): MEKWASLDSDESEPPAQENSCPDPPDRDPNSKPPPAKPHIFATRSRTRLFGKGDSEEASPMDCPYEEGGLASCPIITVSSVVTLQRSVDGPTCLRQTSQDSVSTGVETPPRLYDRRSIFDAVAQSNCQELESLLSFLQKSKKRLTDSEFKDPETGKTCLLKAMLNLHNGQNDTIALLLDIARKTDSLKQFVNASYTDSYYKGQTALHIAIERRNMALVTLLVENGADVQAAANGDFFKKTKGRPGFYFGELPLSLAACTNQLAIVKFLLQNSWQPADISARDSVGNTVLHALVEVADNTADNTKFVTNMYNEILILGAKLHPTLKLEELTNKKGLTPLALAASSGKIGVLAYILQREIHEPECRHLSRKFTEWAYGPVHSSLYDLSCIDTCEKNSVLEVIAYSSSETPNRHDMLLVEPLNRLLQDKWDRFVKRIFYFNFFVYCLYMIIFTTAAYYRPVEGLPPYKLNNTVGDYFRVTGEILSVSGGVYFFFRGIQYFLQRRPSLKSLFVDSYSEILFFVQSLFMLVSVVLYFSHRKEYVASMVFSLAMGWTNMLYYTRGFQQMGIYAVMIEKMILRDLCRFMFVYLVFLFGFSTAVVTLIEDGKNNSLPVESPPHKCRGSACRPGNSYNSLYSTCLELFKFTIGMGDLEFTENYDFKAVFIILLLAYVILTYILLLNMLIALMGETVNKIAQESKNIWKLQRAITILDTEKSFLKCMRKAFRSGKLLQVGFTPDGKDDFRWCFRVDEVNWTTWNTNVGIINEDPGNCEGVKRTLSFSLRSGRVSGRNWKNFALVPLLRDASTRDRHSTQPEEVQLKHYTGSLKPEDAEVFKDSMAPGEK
T5 sequence (Q9R053 whole entry): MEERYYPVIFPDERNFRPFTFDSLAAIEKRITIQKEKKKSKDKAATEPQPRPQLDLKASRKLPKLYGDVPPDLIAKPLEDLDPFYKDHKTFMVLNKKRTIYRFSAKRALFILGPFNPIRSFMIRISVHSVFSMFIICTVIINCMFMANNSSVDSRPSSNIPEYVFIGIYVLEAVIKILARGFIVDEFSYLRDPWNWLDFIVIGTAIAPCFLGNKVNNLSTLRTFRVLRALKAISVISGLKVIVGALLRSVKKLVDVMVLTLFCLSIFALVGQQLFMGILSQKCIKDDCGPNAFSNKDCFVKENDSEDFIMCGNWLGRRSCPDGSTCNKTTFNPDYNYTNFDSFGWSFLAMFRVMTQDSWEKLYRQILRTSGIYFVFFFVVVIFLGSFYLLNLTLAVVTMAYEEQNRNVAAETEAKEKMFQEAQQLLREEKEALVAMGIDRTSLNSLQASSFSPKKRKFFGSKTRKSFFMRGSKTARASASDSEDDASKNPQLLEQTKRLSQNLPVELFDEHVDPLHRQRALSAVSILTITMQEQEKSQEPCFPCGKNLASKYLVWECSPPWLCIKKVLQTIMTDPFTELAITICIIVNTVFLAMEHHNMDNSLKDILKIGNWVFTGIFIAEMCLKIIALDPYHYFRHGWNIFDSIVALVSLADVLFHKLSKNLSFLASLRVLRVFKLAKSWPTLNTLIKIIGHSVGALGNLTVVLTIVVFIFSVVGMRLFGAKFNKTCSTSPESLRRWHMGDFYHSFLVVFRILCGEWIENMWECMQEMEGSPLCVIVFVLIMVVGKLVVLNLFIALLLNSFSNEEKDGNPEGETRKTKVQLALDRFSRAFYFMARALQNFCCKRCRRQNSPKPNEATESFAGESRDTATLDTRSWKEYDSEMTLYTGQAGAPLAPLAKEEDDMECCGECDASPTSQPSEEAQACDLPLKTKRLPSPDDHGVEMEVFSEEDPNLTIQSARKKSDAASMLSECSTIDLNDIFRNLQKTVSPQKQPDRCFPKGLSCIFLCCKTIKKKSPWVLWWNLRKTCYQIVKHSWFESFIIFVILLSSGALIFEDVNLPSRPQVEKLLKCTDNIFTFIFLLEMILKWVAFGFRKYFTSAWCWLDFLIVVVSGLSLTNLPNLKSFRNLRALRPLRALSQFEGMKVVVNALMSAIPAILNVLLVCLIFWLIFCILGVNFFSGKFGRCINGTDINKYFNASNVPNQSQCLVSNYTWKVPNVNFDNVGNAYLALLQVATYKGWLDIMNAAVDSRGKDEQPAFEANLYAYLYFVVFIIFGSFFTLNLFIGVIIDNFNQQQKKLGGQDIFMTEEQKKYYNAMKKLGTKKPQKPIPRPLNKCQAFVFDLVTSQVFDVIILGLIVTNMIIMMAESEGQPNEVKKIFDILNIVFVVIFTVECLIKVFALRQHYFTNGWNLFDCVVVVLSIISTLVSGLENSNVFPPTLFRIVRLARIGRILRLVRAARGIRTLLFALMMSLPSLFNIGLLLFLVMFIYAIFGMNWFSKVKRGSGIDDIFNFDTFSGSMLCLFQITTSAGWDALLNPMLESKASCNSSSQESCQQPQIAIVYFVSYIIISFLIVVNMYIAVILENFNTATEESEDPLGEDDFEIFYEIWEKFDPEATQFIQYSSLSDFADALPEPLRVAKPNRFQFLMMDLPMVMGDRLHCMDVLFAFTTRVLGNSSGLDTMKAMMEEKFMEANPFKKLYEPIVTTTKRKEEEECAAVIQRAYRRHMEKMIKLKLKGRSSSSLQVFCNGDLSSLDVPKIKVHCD

CC(C)(C)c1ccc(/C=C/C(=O)Nc2ccc3c(c2)OCCO3)cc1 [AMG9810]
effect of antagonist pretreatment on amitriptyline-induced calcium ion mobilization (TRPV1; 5-min pretreatment, 10 μM TRPV1 antagonist): had no effect

CC(C)c1ccc(NC(=O)Cn2cnc3c2c(=O)n(C)c(=O)n3C)cc1 [HC30301]
effect of antagonist pretreatment on amitriptyline-induced calcium ion mobilization (TRPA1; 5-min pretreatment, excess of TRPA1 antagonist): led to inhibition of amitriptyline-induced calcium ion mobilization

CN(C)CCC=C1c2ccccc2CCc2ccccc21 [amitriptyline, Amitriptyline]
amitriptyline bioavailability ([1]; 10 mg of 10% cream per cell, 16 hours): 22.5 µg | amitriptyline present in the epidermis ([1]; compared with dermis, 10% cream, 16 hours): 26% | amitriptyline present in the dermis ([1]; compared with epidermis, 10% cream, 16 hours): Approximately 74% | passage into the bloodstream ([1]; relative to the amount of amitriptyline present in the composition): less than 0.1% | discharge of a low-threshold Aβ mechanoreceptor, representative recording (Aβ fibers; 1 mN stimulus, 100 μM, 5 and 10 min superfusion): inhibition was not complete | reversal of inhibition after washout, Aβ mechanoreceptor (Aβ fibers; 30 min washout after 100 μM): partially reversed | IC50 (Aβ fibers; [5]): ~26 µM | inhibition at 100 µM (Aβ fibers; [6]): 82.5% | firing in a C-type mechanonociceptor fiber, representative recording (C fibers; 11.4 mN stimulation, 100 μM, 10 min superfusion): Full inhibition of firing | IC50 (C fibers; [5]): ~15 µM | inhibition at 100 µM (C fibers; [6]): 95.6% | IC50 (Aδ fibers; skin superfusion 10 min, 10-100 μM, read-out: IC50, inhibition of mechanically induced firing): ~16 µM | inhibition at 100 µM (Aδ fibers; 100 μM, 10 min application to the skin preparation, read-out: Mean inhibition of evoked firing): 87.5% | time of washout to reversal of inhibition (C, Aδ and Aβ fibers): 30 to 35 min | IC50 (Nav1.8): 4.25 ± 0.4 µM | IC50 (hNav1.7): 4.25 ± 0.4 µM | IC50 (Nav1.9): 15.6 ± 0.5 µM | IC50 [2]: 62 ± 0.5 µM | time to reversal of inhibition [3]: ≤ 20 ± 2 min | time to increase in intracellular calcium ions (mouse DRG neurons; 0.1 mM): ≤ 10 s | time to plateau of intracellular calcium ion amplitude curve (mouse DRG neurons; 0.1 mM): around 20 seconds | IC50 (mouse DRG neurons; Mus musculus, DRG neuron, 0.01 mM-1 mM, read-out: IC50, percentage of DRG neurons displaying intracellular calcium mobilization): 50 µM | potentiation of DRG neuron activation induced by TRPA1 agonist (TRPA1; 0.01 mM, 5-min incubation, 50 μM AITC): did not potentiate | potentiation of DRG neuron activation induced by TRPV1 agonist (TRPV1; 0.01 mM, 5-min incubation, 62 nM capsaicin): did not potentiate | plasma half-life [4]: 9 to 36 h | efficacy in the treatment of neuropathic pain (neuropathic pain): not efficacious
